According to publication PMC12017303 (Science Advances, 2025):

Tests used:
SARS-CoV-2 Beta variant = conditions: mouse, in vivo
[1] = system: SARS-CoV-2 variants WA1, XBB.1.5, XBB.1.16, and EG.5.1; assay: microbe, parasite or virus in culture; format: cell-based; conditions: Severe acute respiratory syndrome coronavirus 2, read-out: EC50 range against all viruses tested

## C#CCn1c(C)c(-n2nnc3cc(F)c(F)cc32)c(=O)n(-c2cncc3ccccc23)c1=O [AVI-4773]
SARS-CoV-2 Beta variant
  reduction in viral load compared to the ensitrelvir-treated arm: > 3 log
  reduction in viral load compared to vehicle-treated animals: ~ 6 log
  reduction in viral titers: > 1,000,000
  viral titers after three doses, result in words: below detectable levels

## CC(C)(C)[C@H](NC(=O)C(F)(F)F)C(=O)N1C[C@H]2[C@@H]([C@H]1C(=O)N[C@H](C#N)C[C@@H]1CCNC1=O)C2(C)C [nirmatrelvir, reference compound]
SARS-CoV-2 Beta variant
  SARS-CoV-2 N protein in lung (immunohistochemistry): minimal or no viral protein present
  reduction in virus replication compared to the vehicle (plaque assay): 2 log
[1]
  EC50: 21 to 67 nM

## C#CCn1c(C)c(-n2nnc3ccccc32)c(=O)n(-c2cncc3ccccc23)c1=O [AVI-4516]
SARS-CoV-2 Beta variant
  IC50 for decrease in lung virus replication: 14.7 mg/kg
  SARS-CoV-2 N protein in lung (immunohistochemistry): minimal or no viral protein present
  mononuclear cell infiltration and respiratory epithelial cell injury in lung: notably absent
